Experiments:
Settings in all cases: incubation time: 72 h
SK-BR-3 = assay: normalised response (% of control), CellTiter-Glo; higher = more viable cells (100 = DMSO, 0 = benzethonium chloride kill control)
Protocol: (§1)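 DSRT, 72 h incubation, CellTox Green / CellTiter-Glo readout. Signal is normalised to DMSO and benzethonium chloride controls. Value is the normalised response at dose 3.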

DU-4475 [1] = assay: as above
Protocol: as §1

BT-549 [2] = assay: as above
Protocol: as §1

CAL-51 [3] = assay: as above
Protocol: as §1

MCF-10A [4] = assay: as above
Protocol: as §1

MFM-223 [5] = assay: as above
Protocol: as §1

Hs578T [6] = assay: as above
Protocol: as §1

MDA-MB-468 [7] = assay: as above
Protocol: as §1

MDA-MB-231 [8] = assay: as above
Protocol: as §1

CAL-85-1 [9] = assay: as above
Protocol: as §1

CAL-120 [10] = assay: as above
Protocol: as §1

HCC1599 [11] = assay: as above
Protocol: as §1

HCC1937 [12] = assay: as above
Protocol: as §1

HDQ-P1 [13] = assay: as above
Protocol: as §1

HCC1143 [14] = assay: as above
Protocol: as §1

CAL-148 [15] = assay: as above
Protocol: as §1

BT-474 [16] = assay: as above
Protocol: as §1

MDA-MB-453 [17] = assay: as above
Protocol: as §1

MDA-MB-436 [18] = assay: as above
Protocol: as §1

DU-4475 [19] = assay: normalised response (% of control), CellTox Green; higher = less cell death (100 = DMSO, 0 = benzethonium chloride kill control)
Method in brief: (§2)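 A 20 µl suspension of breast cancer cells was seeded into each well of 384-well plates containing compound at 5 concentrations in 10-fold steps over a compound-specific 10,000-fold range. After 72 h incubation, CellTox Green fluorescence (485/520 nm) was read first, and CellTiter-Glo luminescence was read after 10 min at room temperature. Each plate was normalised against 0.1 % DMSO (100) and a positive kill control (0), and each value is the normalised signal at one concentration.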

BT-549 [20] = assay: as above
Method in brief: as §2

CAL-51 [21] = assay: as above
Method in brief: as §2

MCF-10A [22] = assay: as above
Method in brief: as §2

Hs578T [23] = assay: as above
Method in brief: as §2

MDA-MB-468 [24] = assay: as above
Method in brief: as §2

MDA-MB-231 [25] = assay: as above
Method in brief: as §2

CAL-85-1 [26] = assay: as above
Method in brief: as §2

CAL-120 [27] = assay: as above
Method in brief: as §2

HCC1599 [28] = assay: as above
Method in brief: as §2

HCC1937 [29] = assay: as above
Method in brief: as §2

HDQ-P1 [30] = assay: as above
Method in brief: as §2

HCC1143 [31] = assay: as above
Method in brief: as §2

CAL-148 [32] = assay: as above
Method in brief: as §2

BT-474 [33] = assay: as above
Method in brief: as §2

MDA-MB-453 [34] = assay: as above
Method in brief: as §2

MDA-MB-436 [35] = assay: as above
Method in brief: as §2

MFM-223 [36] = assay: as above
Method in brief: as §2

| SMILES | normalised response (SK-BR-3) | normalised response (DU-4475 [1]) | normalised response (BT-549 [2]) | normalised response (CAL-51 [3]) | normalised response (MCF-10A [4]) | normalised response (MFM-223 [5]) | normalised response (Hs578T [6]) | normalised response (MDA-MB-468 [7]) | normalised response (MDA-MB-231 [8]) | normalised response (CAL-85-1 [9]) | normalised response (CAL-120 [10]) | normalised response (HCC1599 [11]) | normalised response (HCC1937 [12]) | normalised response (HDQ-P1 [13]) | normalised response (HCC1143 [14]) | normalised response (CAL-148 [15]) | normalised response (BT-474 [16]) | normalised response (MDA-MB-453 [17]) | normalised response (MDA-MB-436 [18]) | normalised response (DU-4475 [19]) | normalised response (BT-549 [20]) | normalised response (CAL-51 [21]) | normalised response (MCF-10A [22]) | normalised response (Hs578T [23]) | normalised response (MDA-MB-468 [24]) | normalised response (MDA-MB-231 [25]) | normalised response (CAL-85-1 [26]) | normalised response (CAL-120 [27]) | normalised response (HCC1599 [28]) | normalised response (HCC1937 [29]) | normalised response (HDQ-P1 [30]) | normalised response (HCC1143 [31]) | normalised response (CAL-148 [32]) | normalised response (BT-474 [33]) | normalised response (MDA-MB-453 [34]) | normalised response (MDA-MB-436 [35]) | normalised response (MFM-223 [36]) |
| --- | --- | --- | --- | --- | --- | --- | --- | --- | --- | --- | --- | --- | --- | --- | --- | --- | --- | --- | --- | --- | --- | --- | --- | --- | --- | --- | --- | --- | --- | --- | --- | --- | --- | --- | --- | --- | --- |
| Cc1cc2c(F)c(Oc3ncnn4cc(OC[C@@H](C)O)c(C)c34)ccc2[nH]1 [Brivanib] (10 nM) | 115% | 99.6% | 100% | 106% | 113% | 108% | 102% | 105% | 111% | 102% | 100% | 104% | 101% | 99.5% | 105% | 108% | 105% | 102% | 112% | 104% | 60.1% | 108% | 89.7% | 88.4% | 91.2% | 111% | 106% | 98% | 104% | 82% | 72.3% | 111% | 103% | 99.8% | 109% | 96% | – |
| Nc1nc(Cl)nc2c1ncn2[C@@H]1O[C@H](CO)[C@@H](O)[C@@H]1F [Clofarabine] (100 nM) | 82.6% | 99.4% | 79.5% | 76% | 109% | 104% | 98.6% | 94.3% | 83.9% | 93.2% | 93.8% | 76.2% | 84.1% | 98.5% | 96.4% | 96.2% | 82.3% | 105% | 90.3% | 114% | 102% | 86% | 99.3% | 90.3% | – | 106% | 113% | 107% | 103% | 62.3% | 100% | 105% | 92.7% | 104% | 106% | 102% | 99.3% |
| CCN(CC)CCOc1ccc(C(=C(Cl)c2ccccc2)c2ccccc2)cc1 [Clomifene] (100 nM) | 104% | 103% | 103% | 102% | 95.2% | 104% | 113% | 94.1% | 106% | 101% | 103% | 87.8% | 101% | 99% | 102% | 109% | 105% | 103% | 98.5% | 100% | 105% | 112% | 104% | 75.9% | 91.3% | 106% | 106% | 102% | 98.5% | 59.1% | 97.7% | 112% | 96.2% | 96.8% | 104% | – | 102% |
| NC1(c2ccc(-c3nc4ccn5c(=O)[nH]nc5c4cc3-c3ccccc3)cc2)CCC1 [MK-2206] (10 nM) | 93.8% | 102% | 107% | 74.5% | 110% | 104% | 102% | 102% | 108% | 99.8% | 102% | 84.7% | 96.5% | 95.5% | 104% | 107% | 102% | 88.5% | 102% | 103% | 86.6% | 83.6% | 111% | 96.1% | 139% | 115% | 95.4% | 103% | 118% | 81.7% | 114% | 110% | – | 99% | 110% | 95.6% | 104% |
| NC(=O)c1cccc2cn(-c3ccc([C@@H]4CCCNC4)cc3)nc12 [MK-4827] (100 nM) | 104% | 99.8% | 91.6% | 90.9% | 110% | 107% | 95.1% | 94.7% | 106% | 101% | 105% | 90% | 102% | 101% | 107% | 112% | 109% | 99.4% | 95.8% | 101% | – | 89.4% | 84.8% | 116% | 136% | 107% | 102% | 102% | 115% | 111% | 78% | 110% | 104% | 88.2% | 91.6% | – | 82.5% |
| O=C(c1cc(Cc2n[nH]c(=O)c3ccccc23)ccc1F)N1CCN(C(=O)C2CC2)CC1 [Olaparib] (100 nM) | 88.8% | 95.8% | 100% | 66.4% | 101% | 99.2% | 97.7% | 105% | 93.8% | 102% | 91.4% | 103% | 96% | 96.8% | 94.4% | 98.5% | 96.5% | 107% | 91.3% | 101% | 105% | 81.9% | 98.9% | 110% | – | 97.4% | 103% | 95% | 101% | 94.9% | 101% | 110% | 79.6% | 96.5% | 103% | 88.4% | 103% |
| CN1CCN(c2nc(C3=C(c4c[nH]c5ccccc45)C(=O)NC3=O)c3ccccc3n2)CC1 [Sotrastaurin] (100 nM) | 100% | 94.3% | 98.7% | 112% | 87.5% | 92.1% | 97.5% | 99.3% | 102% | 102% | 98.1% | 99.1% | 97.8% | 96.1% | 98.8% | 97.2% | 98.2% | 95.6% | 98.9% | 99.6% | 99.3% | 98% | 91.4% | 93.3% | 162% | 67% | 113% | 83.6% | 97.2% | 64.6% | 101% | 76.4% | 98.4% | 102% | 97.8% | 96.6% | – |
| COc1cc2c(N3CCN(C(=O)Nc4ccc(OC(C)C)cc4)CC3)ncnc2cc1OCCCN1CCCCC1 [Tandutinib] (10 nM) | 100% | 97.1% | 104% | 69.2% | 97.8% | 100% | 101% | 103% | 103% | 109% | 100% | 106% | 97.4% | 99.7% | 98.1% | 102% | 98.9% | 96.3% | 106% | 98% | 98.8% | 95% | 104% | 69.4% | 63.1% | 99.9% | 99% | 87.9% | 96.8% | 81.3% | 90.3% | 86.5% | – | 84.8% | 90.3% | 101% | 78.6% |
| CN1CCc2c(c3ccccc3n2Cc2ccc(C(=O)NO)cc2)C1 [Tubastatin A] (100 nM) | 97.5% | 102% | 103% | 91.8% | 102% | 96.9% | 102% | 95.3% | 99.9% | 98.2% | 98.1% | 99.2% | 101% | 95.4% | 104% | 106% | 96.8% | 96.3% | 93.1% | 104% | 86.2% | 105% | 101% | 110% | – | 116% | 102% | 103% | 99.9% | 92.5% | 101% | 105% | 99.3% | 101% | 107% | 109% | 93.8% |

Source: the supplement of paper PMC4862054
